How the values were obtained:
Set-up in all cases: key: 0: normal development; 1: Less damaged; 2: Slightly damaged; 3: Moderately damaged; 4: Severely damaged; 5: All killed
cotton = assay: Soil treatment test for upland field; type: in vivo; conditions: 500 g/ha, glass house 25° C., 3 weeks
Excerpt: (§1) (0: normal development, 1: Less damaged, 2: Slightly damaged, 3: Moderately damaged, 4: Severely damaged, 5: All killed).
(§2) Wagner pots, each having an area of 1/5000 are, were packed with Ube soil (alluvial soil), and then each seed of corn, soybean, cotton, wheat, solgum, sugar beat, Large crabgrass, barnyardgrass, green foxtail, blackgrass, annual bluegrass, common lambsquartes, livid amaranth and velvetleaf were planted and covered with soil.
(§3) Each wettable powder of the desired compounds (I) shown in Table 1 prepared in accordance with Example 2 was diluted with water containing a surfactant (0.05%) and uniformly sprayed on the surface of each soil so that an effective concentration of the compound (I) in each herbicide became 500 g/ha. These plants were controlled in a glass house at an average temperature of 25° C. for 3 weeks, and then herbicidal effects thereof were investigated.
(§4) The herbicidal effects were evaluated according to the evaluation method described in the above (1).

corn [1] = assay: Soil treatment test for upland field; type: in vivo; conditions: 500 g/ha, glass house 25° C., 3 weeks
Excerpt: as §1, §2, §3, §4

solgum [2] = assay: Soil treatment test for upland field; type: in vivo; conditions: 500 g/ha, glass house 25° C., 3 weeks
Excerpt: as §1, §2, §3, §4

sugar beat [3] = assay: Soil treatment test for upland field; type: in vivo; conditions: 500 g/ha, glass house 25° C., 3 weeks
Excerpt: as §1, §2, §3, §4

wheat [4] = assay: Soil treatment test for upland field; type: in vivo; conditions: 500 g/ha, glass house 25° C., 3 weeks
Excerpt: as §1, §2, §3, §4

soybean = assay: Soil treatment test for upland field; type: in vivo; conditions: 500 g/ha, glass house 25° C., 3 weeks
Excerpt: as §1, §2, §3, §4

livid amaranth [5] = assay: Soil treatment test for upland field; type: in vivo, Amaranthus lividus; conditions: 500 g/ha, glass house 25° C., 3 weeks
Excerpt: as §1, §2, §3, §4

barnyardgrass [6] = assay: Herbicidal test for paddy field; type: in vivo, Echinochloa crusgalli; conditions: paddy field pot, 500 g/ha dropwise at 1.5 leaf stage of barnyardgrass, 3 weeks, rank vs non-treated
Protocol: (§5) Wagner pots, each having an area of 1/5000 are, were packed with Ube soil (alluvial soil) and planted with seeds or tubers of young rice plant, barnyardgrass, bulrush, flat sedge and monochoria. Then, the pots were filled with water to a depth of 3 cm.
(§6) Each wettable powder of the desired compounds (I) shown in Table 1 prepared in accordance with Example 2 was diluted with water containing a surfactant (0.05%) and subjected to dropwise addition treatment by using pipet so that an effective concentration of the compound (I) in each herbicide became 500 g/ha at 1.5 leaf stage of barnyardgrass.
(§7) These plants were controlled in a glass house at an average temperature of 25° C. for 3 weeks, and then herbicidal effects thereof were investigated.
(§8) The herbicidal effects are evaluated according to the following 6 ranks as compared with non-treated district.
as §1

blackgrass = assay: Soil treatment test for upland field; type: in vivo, Alopecurus aegualis; conditions: 500 g/ha, glass house 25° C., 3 weeks
Excerpt: as §1, §2, §3, §4

green foxtail [7] = assay: Soil treatment test for upland field; type: in vivo, Setaria viridis; conditions: 500 g/ha, glass house 25° C., 3 weeks
Excerpt: as §1, §2, §3, §4

annual bluegrass [8] = assay: Soil treatment test for upland field; type: in vivo, Poa annua; conditions: 500 g/ha, glass house 25° C., 3 weeks
Excerpt: as §1, §2, §3, §4

common lambsquartes [9] = assay: Soil treatment test for upland field; type: in vivo, Chenopodium album; conditions: 500 g/ha, glass house 25° C., 3 weeks
Excerpt: as §1, §2, §3, §4

young rice plant = assay: Herbicidal test for paddy field; type: in vivo; conditions: paddy field pot, 500 g/ha dropwise at 1.5 leaf stage of barnyardgrass, 3 weeks, rank vs non-treated
Protocol: as §5, §6, §7, §8, §1

bulrush = assay: Herbicidal test for paddy field; type: in vivo, Scrips juncoides; conditions: paddy field pot, 500 g/ha dropwise at 1.5 leaf stage of barnyardgrass, 3 weeks, rank vs non-treated
Protocol: as §5, §6, §7, §8, §1

Large crabgrass [10] = assay: Soil treatment test for upland field; type: in vivo, Digitaria adscendens; conditions: 500 g/ha, glass house 25° C., 3 weeks
Excerpt: as §1, §2, §3, §4

barnyardgrass [11] = assay: Soil treatment test for upland field; type: in vivo, Echinochloa crusgalli; conditions: 500 g/ha, glass house 25° C., 3 weeks
Excerpt: as §1, §2, §3, §4

monochoria = assay: Herbicidal test for paddy field; type: in vivo, Monochoria vaginalis; conditions: paddy field pot, 500 g/ha dropwise at 1.5 leaf stage of barnyardgrass, 3 weeks, rank vs non-treated
Protocol: as §5, §6, §7, §8, §1

velvetleaf [12] = assay: Soil treatment test for upland field; type: in vivo, Abutilon theophrasti; conditions: 500 g/ha, glass house 25° C., 3 weeks
Excerpt: as §1, §2, §3, §4

green foxtail [13] = assay: Foliar spread test for upland field; type: in vivo, Setaria viridis; conditions: foliar spray 500 ppm, 3 weeks, rank vs non-treated
Excerpt: as §1
(§9) Wagner pots, each having an area of 1/5000 are, were packed with volcanic ash soil and then each seed of corn, soybean, cotton, wheat, solgum, sugar beat, Large crabgrass, barnyardgrass, green foxtail, blackgrass, annual bluegrass, common lambsquartes, livid amaranth, velvetleaf and morning glory was planted, covered with soil and grown in a glass house at an average temperature of […] for about 2 weeks.
(§10) Each wettable powder of the desired compounds (I) shown in Table 1 prepared in accordance with Example 2 was diluted to 500 ppm with water containing a surfactant (0.5%) and then uniformly sprayed on the above respective plants.
(§11) After these plants were controlled in a glass house at an average temperature of 25° C. for 3 weeks, the herbicidal effects thereof were investigated.
as §4

morning glory = assay: Foliar spread test for upland field; type: in vivo, Ipomoea spps.; conditions: foliar spray 500 ppm, 3 weeks, rank vs non-treated
Excerpt: as §1, §9, §10, §11, §4

livid amaranth [14] = assay: Foliar spread test for upland field; type: in vivo, Amaranthus lividus; conditions: foliar spray 500 ppm, 3 weeks, rank vs non-treated
Excerpt: as §1, §9, §10, §11, §4

corn [15] = assay: Foliar spread test for upland field; type: in vivo; conditions: foliar spray 500 ppm, 3 weeks, rank vs non-treated
Excerpt: as §1, §9, §10, §11, §4

solgum [16] = assay: Foliar spread test for upland field; type: in vivo; conditions: foliar spray 500 ppm, 3 weeks, rank vs non-treated
Excerpt: as §1, §9, §10, §11, §4

sugar beat [17] = assay: Foliar spread test for upland field; type: in vivo; conditions: foliar spray 500 ppm, 3 weeks, rank vs non-treated
Excerpt: as §1, §9, §10, §11, §4

wheat [18] = assay: Foliar spread test for upland field; type: in vivo; conditions: foliar spray 500 ppm, 3 weeks, rank vs non-treated
Excerpt: as §1, §9, §10, §11, §4

common lambsquartes [19] = assay: Foliar spread test for upland field; type: in vivo, Chenopodium album; conditions: foliar spray 500 ppm, 3 weeks, rank vs non-treated
Excerpt: as §1, §9, §10, §11, §4

velvetleaf [20] = assay: Foliar spread test for upland field; type: in vivo, Abutilon theophrasti; conditions: foliar spray 500 ppm, 3 weeks, rank vs non-treated
Excerpt: as §1, §9, §10, §11, §4

annual bluegrass [21] = assay: Foliar spread test for upland field; type: in vivo, Poa annua; conditions: foliar spray 500 ppm, 3 weeks, rank vs non-treated
Excerpt: as §1, §9, §10, §11, §4

Large crabgrass [22] = assay: Foliar spread test for upland field; type: in vivo, Digitaria adscendens; conditions: foliar spray 500 ppm, 3 weeks, rank vs non-treated
Excerpt: as §1, §9, §10, §11, §4

Compound	Effects Cotton (cotton)	Effects Corn (corn [1])	Effects Solgum (solgum [2])	Effects Sugar beat (sugar beat [3])	Effects Wheat (wheat [4])	Effects Soybean (soybean)	Effects Livid amaranth (livid amaranth [5])	Effect Barnyardgrass (barnyardgrass [6])	Effects Blackgrass (blackgrass)	Effects Green foxtail (green foxtail [7])	Effects Annual bluegrass (annual bluegrass [8])	Effects Common lambsquarters (common lambsquartes [9])	Effect Young rice plant (young rice plant)	Effect Bulrush (bulrush)	Effects Large crabgrass (Large crabgrass [10])	Effects Barnyardgrass (barnyardgrass [11])	Effect Monochoria (monochoria)	Effects Velvetleaf (velvetleaf [12])	Effects Green foxtail (green foxtail [13])	Effects Livid amaranth (livid amaranth [14])	also measured
CCC(Oc1cccc(C(F)(F)F)c1)c1nc2ccc(Cl)cc2o1 (stereo not shown) [Compound 10]	0	0	0	0	0	0	4	4	2	4	4	2	0	3	5	2	1	–	–	–	–
CCC(Oc1cccc(C(F)(F)F)c1)c1nc2cc(C(F)(F)F)ccc2o1 (stereo not shown) [Compound 198]	1	2	2	5	1	–	5	4	5	5	5	4	1	1	5	4	5	3	–	–	–
CCC(Oc1ccc(F)c(C(F)(F)F)c1)c1nc2cc(C#N)c(C#N)cc2o1 (stereo not shown) [Compound 316]	0	0	0	5	0	0	5	–	4	5	4	5	0	3	5	–	5	5	5	5	Effects Morning glory (morning glory): 2; Effects Corn (corn [15]): 2; Effects Solgum (solgum [16]): 1; Effects Sugar beat (sugar beat [17]): 5; Effects Wheat (wheat [18]): 1; Effects Common lambsquarters (common lambsquartes [19]): 3; Effects Velvetleaf (velvetleaf [20]): 3
CCCC(Oc1cccc(C#N)c1)c1nc2cc(S(C)(=O)=O)c(C)cc2o1 (stereo not shown) [Compound 492]	–	–	–	–	–	–	–	2	–	–	–	–	0	3	–	–	5	–	2	4	Effects Corn (corn [15]): 1; Effects Solgum (solgum [16]): 1; Effects Sugar beat (sugar beat [17]): 4; Effects Wheat (wheat [18]): 1; Effects Velvetleaf (velvetleaf [20]): 3
CCC(Oc1ccc(F)c(C(F)(F)F)c1)c1nc2cc(OC)ccc2o1 (stereo not shown) [Compound 503]	1	2	2	5	2	1	5	–	5	5	5	5	–	–	5	5	–	5	5	5	Effects Corn (corn [15]): 2; Effects Solgum (solgum [16]): 2; Effects Sugar beat (sugar beat [17]): 4; Effects Wheat (wheat [18]): 2; Effects Annual bluegrass (annual bluegrass [21]): 3; Effects Large crabgrass (Large crabgrass [22]): 3; Effects Common lambsquarters (common lambsquartes [19]): 5; Effects Velvetleaf (velvetleaf [20]): 3

From patent US6706664B1, “Benzoxazole compounds, process for the preparation thereof and herbicides” (UBE Industries, Ltd., priority 1999, dated 2004)
